Source: ChEMBL document CHEMBL5214978, “Identification of 1,4-Benzodiazepine-2,5-dione Derivatives as Potential Protein Synthesis Inhibitors with Highly Potent Anticancer Activity” (J Med Chem, 2022)

Assays:
MCF7 = assay: Anticancer activity against human MCF7 cells assessed as cell growth inhibition
MDA-MB-231 = assay: Anticancer activity against human MDA-MB-231 cells assessed as cell growth inhibition
A498 = assay: Anticancer activity against human A498 cells assessed as cell growth inhibition; format: functional, cell-based
[1] = test system: Panel NCI-60 (60 carcinoma cell lines); assay: Anticancer activity against human Panel NCI-60 (60 carcinoma cell lines) cells assessed as cell growth inhibition; format: functional
[2] = target: T1, Nuclear receptor subfamily 6 group A member 1 (Homo sapiens, UniProt Q15406); assay: Antagonist activity at GCNF (unknown origin) by luciferase reporter gene assay
T1 sequence (Q15406 whole entry): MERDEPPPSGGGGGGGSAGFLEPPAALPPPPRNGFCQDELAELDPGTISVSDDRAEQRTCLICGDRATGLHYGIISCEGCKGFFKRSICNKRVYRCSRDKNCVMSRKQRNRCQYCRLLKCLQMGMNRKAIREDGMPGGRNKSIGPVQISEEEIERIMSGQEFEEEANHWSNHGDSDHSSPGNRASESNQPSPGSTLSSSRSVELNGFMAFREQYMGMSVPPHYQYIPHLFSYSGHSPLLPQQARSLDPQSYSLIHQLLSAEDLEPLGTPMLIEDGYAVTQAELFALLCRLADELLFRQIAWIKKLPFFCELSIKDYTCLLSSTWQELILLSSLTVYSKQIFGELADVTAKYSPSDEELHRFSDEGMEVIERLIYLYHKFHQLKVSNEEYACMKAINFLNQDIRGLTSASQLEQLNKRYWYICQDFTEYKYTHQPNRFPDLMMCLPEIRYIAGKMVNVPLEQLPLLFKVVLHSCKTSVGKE

LOX IMVI = assay: Anticancer activity against human LOX IMVI cells assessed as cell growth inhibition measured after 48 hrs by SRB assay; format: functional
786-0 = assay: Anticancer activity against human 786-0 cells assessed as cell growth inhibition measured after 48 hrs by SRB assay; format: functional
[3] = test system: Panel NCI-60 (60 carcinoma cell lines); assay: Anticancer activity against human Panel NCI-60 (60 carcinoma cell lines) line assessed as cell growth inhibition measured after 48 hrs by SRB assay; format: functional
SF-295 = assay: Anticancer activity against human SF-295 cells assessed as cell growth inhibition measured after 48 hrs by SRB assay; format: functional
HCT-116 = assay: Anticancer activity against human HCT-116 cells assessed as cell growth inhibition measured after 48 hrs by SRB assay; format: functional
A549 = assay: Anticancer activity against human A549 cells assessed as cell growth inhibition measured after 48 hrs by SRB assay; format: functional
NCI-H661 = assay: Anticancer activity against human NCI-H661 cells assessed as cell growth inhibition; format: functional, cell-based

Row | Compound | IC50 (MCF7) | IC50 (MDA-MB-231) | GI50 (A498) | GI50 [1] | IC50 (A498) | EC50 [2] | GI50 (LOX IMVI) | GI50 (786-0) | GI50 [3] | GI50 (SF-295) | GI50 (HCT-116) | GI50 (A549) | IC50 (NCI-H661)
1 | C[C@H](c1ccc(Cl)cc1)N1C(=O)c2cc(I)ccc2N(CCCCC(=O)O)C(=O)[C@@H]1c1ccc(Cl)cc1 | 7000 nM | 67000 nM |  |  |  |  |  |  |  |  |  |  | 
2 | O=C1Nc2ccccc2C(=O)N2C=C(c3ccc(Br)cc3)C[C@@H]12 |  |  | 510 nM | 7410 nM |  |  |  |  |  |  |  |  | 
3 | O=C1Nc2ccc(Br)cc2C(=O)N(Cc2ccccc2Sc2ccc(Cl)cc2)[C@@H]1Cc1ccccc1 |  |  |  |  | 5000 nM | < 7000 nM |  |  |  |  |  |  | 
4 | CCc1noc(C[C@@H]2NC(=O)c3cc(Oc4cc(C)cc(C)c4)c(NC(=O)c4cc(OC)c(OC)c(OC)c4)cc3NC2=O)n1 |  |  |  |  |  |  | 130 nM | 720 nM | 270 nM | 110 nM | 260 nM | 140 nM | 
5 | COC(=O)C[C@@H]1NC(=O)c2cc(Oc3cc(C)cc(C)c3)c(NC(=O)c3ccco3)cc2NC1=O |  |  |  |  |  |  | > 50000 nM | > 50000 nM | > 50000 nM | > 50000 nM | > 50000 nM | > 50000 nM | 
6 | COC(=O)C[C@@H]1NC(=O)c2cc(Oc3cc(Cl)cc(Cl)c3)c(NC(=O)c3cc(OC)c(OC)c(OC)c3)cc2NC1=O |  |  |  |  |  |  | > 50000 nM | > 50000 nM | > 50000 nM | > 50000 nM | > 50000 nM | > 50000 nM | 
7 | COc1cc(C(=O)Nc2cc3c(cc2Oc2cc(C)cc(C)c2)C(=O)N[C@@H](Cc2ncnn2C)C(=O)N3)cc(OC)c1OC |  |  |  |  |  |  | 70 nM | 36000 nM | 160 nM | 180 nM | 90 nM | 470 nM | 
8 | COC(=O)C[C@@H]1NC(=O)c2cc(Oc3ccc(C(F)(F)F)cc3)c(NC(=O)c3cc(OC)c(OC)c(OC)c3)cc2NC1=O |  |  |  |  |  |  | > 50000 nM | > 50000 nM | > 50000 nM | > 50000 nM | > 50000 nM | > 50000 nM | 
9 | COC(=O)C[C@@H]1NC(=O)c2cc(OCCCc3cc(C)cc(C)c3)c(NC(=O)c3cc(OC)c(OC)c(OC)c3)cc2NC1=O |  |  |  |  |  |  | > 50000 nM | > 50000 nM | > 50000 nM | > 50000 nM | > 50000 nM | > 50000 nM | 
10 | COC(=O)C[C@@H]1NC(=O)c2cc(Oc3cc(C)cc(F)c3)c(NC(=O)c3cc(OC)c(OC)c(OC)c3)cc2NC1=O |  |  |  |  |  |  | 190 nM | 160 nM | 180 nM | 150 nM | 160 nM | 140 nM | 
11 | CCN(CC)C(=O)C[C@H]1C(=O)Nc2cc(NC(=O)c3c(Cl)c(OC)c(OC)c(OC)c3Br)c(Oc3cc(C)cc(C)c3)cc2C(=O)N1C |  |  |  |  |  |  | 39 nM | 87 nM | 68 nM | 68 nM | 70 nM | 74 nM | 
12 | CCN(CC)C(=O)C[C@H]1C(=O)Nc2cc(NC(=O)c3cc(OC)c(OC)c(OC)c3)c(Oc3cc(C)cc(C)c3)cc2C(=O)N1C |  |  |  |  |  |  | 18 nM | 41 nM | 23 nM | 10 nM | 21 nM | 17 nM | 
13 | COC(=O)C[C@@H]1NC(=O)c2cc(Oc3cc(C)ccc3C)c(NC(=O)c3cc(OC)c(OC)c(OC)c3)cc2NC1=O |  |  |  |  |  |  | 1360 nM | 1280 nM | 1350 nM | 960 nM | 1340 nM | 1170 nM | 
14 | COC(=O)C[C@@H]1NC(=O)c2cc(Oc3cc(C)cc(C)c3)c(NC(=O)c3cc(OC)cc(OC)c3)cc2NC1=O |  |  |  |  |  |  | 240 nM | 150 nM | 240 nM | 80 nM | 200 nM | 150 nM | 
15 | O=C(CCCCCN1C(=O)c2ccccc2N(Cc2ccccc2)C(=O)[C@@H]1Cc1ccccc1)NO |  |  |  |  |  |  |  |  |  |  |  |  | 6000 nM
16 | CCN(CC)C(=O)C[C@@H]1NC(=O)c2cc(Oc3cc(C)cc(C)c3)c(NC(=O)c3cc(OC)c(OC)c(OC)c3)cc2N(C)C1=O |  |  |  |  |  |  | > 50000 nM | > 50000 nM | > 50000 nM | > 50000 nM | > 50000 nM | > 50000 nM | 
17 | COC(=O)C[C@@H]1NC(=O)c2cc(OCCc3cc(C)cc(C)c3)c(NC(=O)c3cc(OC)c(OC)c(OC)c3)cc2NC1=O |  |  |  |  |  |  | 5150 nM | 7450 nM | 3020 nM | 1610 nM | 4010 nM | 2090 nM | 
